Measurements published in US20050049241A1, “Pyridyl piperazinyl ureas” (priority 2003, published 2005).

Experiments:
guinea pig pain models = settings: guinea pig models of inflammatory and neuropathic pain; cited from earlier work
guinea pigs = settings: cough induced by capsaicin and citric acid; cited from earlier work
VR1 [1] = target: T1, VR1 (Homo sapiens, UniProt Q8NER1); assay: [3H] Resiniferatoxin binding assay on cell membranes; set-up: expressed in transfected cells; inferred to be hVR1/HEK293; settings: [3H] RTX displacement, 37° C. 60 min
Method: Resiniferatoxin Binding Assay
Cell membranes were prepared by washing cells with Hank's Balanced Salt Solution. Cells were dissociated with cell dissociation buffer (Sigma), and then centrifuged at 1000×g for 5 min. Cell pellets were homogenized in cold 20 mM HEPES buffer, pH 7.4, containing 5.8 mM NaCl, 320 mM sucrose, 2 mM MgCl2, 0.75 mM CaCl2 and 5 mM KCl and centrifuged at 1000×g for 15 min. The resultant supernatant was then centrifuged at 4000×g for 15 min. The pellet membranes were stored at −80° C. […] Briefly, about 120 μg protein/mL membranes were incubated with the indicated concentration of [^3H] RTX (New England Nuclear) in 0.5 mL of the HEPES buffer (pH 7.4) containing 0.25 mg/mL fat acid free bovine serum albumin at 37° C. for 60 min and then the reaction mixture was cooled to 4° C. α1-Acid glycoprotein (0.1 mg) was added to each sample and was incubated at 4° C. for 15 min. The samples were centrifuged at 18,500 g for 15 min. The tip of the microcentrifuge tube containing the pellets was cut off. The non-specific binding was tested in the presence of 200 nM unlabeled RTX. Bound radioactivity was quantified by scintillation counting. Ki is calculated based on a non-linear regression program (PRISM™ software, GraphPad Software, San Diego, Calif.).

VR1 [2] = target: T1, VR1; assay: Functional assay: block of capsaicin-induced Ca2+ influx (FLIPR, hVR1/HEK293 cells); type: cell-based; set-up: expressed in transfected cells; host or cells: HEK293
Method: Functional assay: block of capsaicin-induced Ca^2+ influx
The contents of the wells were mixed 3 times (40 μL mix volume) immediately after the additions were made.

T1 sequence (Q8NER1 whole entry): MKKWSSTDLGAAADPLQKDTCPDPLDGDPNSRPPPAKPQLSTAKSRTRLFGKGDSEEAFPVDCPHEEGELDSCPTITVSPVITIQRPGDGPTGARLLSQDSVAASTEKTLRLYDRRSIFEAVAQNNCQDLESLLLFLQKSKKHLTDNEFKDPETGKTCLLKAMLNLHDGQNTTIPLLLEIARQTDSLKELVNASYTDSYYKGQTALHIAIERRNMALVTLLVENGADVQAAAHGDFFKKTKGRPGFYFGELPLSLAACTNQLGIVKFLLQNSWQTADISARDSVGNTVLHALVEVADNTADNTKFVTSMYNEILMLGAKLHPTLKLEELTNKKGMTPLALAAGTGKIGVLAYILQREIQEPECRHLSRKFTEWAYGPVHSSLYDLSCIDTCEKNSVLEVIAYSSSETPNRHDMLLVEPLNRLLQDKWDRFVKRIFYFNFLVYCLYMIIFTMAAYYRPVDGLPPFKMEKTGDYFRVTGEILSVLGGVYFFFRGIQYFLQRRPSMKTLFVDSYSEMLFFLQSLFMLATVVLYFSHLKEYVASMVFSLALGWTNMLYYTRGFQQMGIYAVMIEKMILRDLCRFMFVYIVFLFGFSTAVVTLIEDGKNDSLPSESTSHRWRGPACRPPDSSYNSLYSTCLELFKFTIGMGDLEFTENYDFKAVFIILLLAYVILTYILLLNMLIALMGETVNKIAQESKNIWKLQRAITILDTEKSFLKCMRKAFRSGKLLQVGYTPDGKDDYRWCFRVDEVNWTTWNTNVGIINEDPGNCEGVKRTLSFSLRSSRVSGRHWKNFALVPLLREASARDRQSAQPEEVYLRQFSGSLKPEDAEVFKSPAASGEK

SMILES: Oc1cc2c(cc1O)CN(C(=S)NCCc1ccc(Cl)cc1)CCC2 [Capsazepine]
- reversal of mechanical hyperalgesia (guinea pig pain models): reverses mechanical hyperalgesia
- inhibition of cough (guinea pigs): inhibits cough induced by capsaicin and citric acid

SMILES: O=C(Nc1ccc(C(F)(F)F)cn1)N1CCN(c2ncccc2Cl)CC1 [Comparative A, 4-(3-chloro-pyridin-2-yl)-piperazine-1-carboxylic acid (5-trifluoromethyl-pyridin-2-yl)-amide]
- Ki (VR1 [1]): 1020 nM
- IC50 (VR1 [2]; block of Ca2+ influx induced by 15 nM capsaicin, hVR1/HEK293, 3 and 60 min incubation data combined): 120 nM

SMILES: COc1cc(CNC(=O)CCCC/C=C/C(C)C)ccc1O [capsaicin]
- capsaicin concentration at ~EC80 (VR1 [2]; agonist, human recombinant VR1 in hVR1/HEK293): ~15 nM
